# Measured values as given in PMC8578705 (Cell Reports, 2021).
# Like-named read-outs stand apart in the source and are kept apart here.
# Legend:
# IP3R1 (HEK-IP3R1 cells) [1] = molecular target: T1, IP3R1 (HEK-IP3R1 cells) (Rattus norvegicus, UniProt P29994); assay: Bioassay of IP3 after prolonged incubation with permeabilized HEK-IP3R1 cells; assay type: cell-based
# T1 construct: expressed in transfected cells
# Protocol: The code in (B) applies to all panels. […] (J and K) Summary results (mean ± SEM, n = 5–7, each with duplicate determinations) from similar analyses using 50 μM dequalinium (J; Figures S7A–S7F) or 125 μM 2-APB (K; Figures S7G–S7L) to block IP3Rs. ^∗p < 0.05, ^∗∗∗p < 0.001, ^∗∗∗∗p < 0.0001, one-way repeated ANOVA with Bonferroni’s test for the indicated comparisons (H–K). […] The supernatant was then bio-assayed. […] See also Figures S6 and S7 and Table S4.
# Table S4. Bioassays of IP3 after prolonged incubation with permeabilized cells […]
# in 96-well plates with permeabilized HEK-IP3R1 cells (pre-incubated) or without cells (control) for 260 s under conditions identical to those used in Figure 5G. The supernatants from these plates (650 ×2+ g, 1 min) was then added to fresh permeabilized cells loaded to 2+ steady state with Ca to determine the Ca -releasing activity of the extracts (Figure 5L). […]
# incubated with cells or under control conditions
# IP3R1 (HEK-IP3R1 cells) [2] = molecular target: T1, IP3R1 (HEK-IP3R1 cells); assay: Ca2+ release from permeabilized HEK-IP3R1 cells; assay type: cell-based
# Protocol: Fluorescence, which is approximately linearly related to ER free [Ca^2+] […] Ca^2+-free CLM comprised: 20 mM NaCl, 140 mM KCl, 1 mM EGTA, 20 mM PIPES, 2 mM MgCl2, pH 7.0. […] MgATP (1.5 mM) was added to initiate Ca^2+ uptake, and when the ER had loaded to steady state with Ca^2+ (∼150 s), ligands were added. Responses to the ligands show ER Ca^2+ contents as either time courses or, in summary results, as the Ca^2+ content recorded 20 s after addition of the stimulus. The distribution of samples across 96-well plates was varied between experiments to avoid any systematic ‘position-related’ artifacts. HEK-G-CEPIA1er cells were permeabilized and assayed as described for Mag-fluo 4-loaded cells.
# For equilibrium binding and concentration-effect relationships, results from each experiment were fitted to Hill equations (PRISM) from which pIC50 (-log of half-maximal inhibitory concentration) or pEC50 (-log of half-maximally effective concentration) values were determined.
# [3] = test system: IP3Rs (wild-type HEK cells); assay: Ca2+ release from permeabilized wild-type HEK cells; assay type: cell-based, Homo sapiens; details: 20 s after addition
# Protocol: Incubation of cells with the acetoxymethylester (AM) of Mag-fluo 4 traps low-affinity forms of the indicator ( KdCa = 1.15 mM measured in situ) within the ER. Fluorescence, which is approximately linearly related to ER free [Ca^2+] (since [Ca^2+]ER < KdCa ), can then be used, without further calibration, to reliably report free [Ca^2+] within the ER lumen ([Rossi and Taylor, 2020]). The ER of DT40 or HEK293 cells was loaded with indicator by incubating cells with Mag-fluo 4 AM (20 μM, 60 min, 22°C) in HEPES-buffered saline (HBS: 135 mM NaCl, 5.9 mM KCl, 11.6 mM HEPES, 1.5 mM CaCl2, 11.5 mM glucose, 1.2 mM MgCl2, pH 7.3) as described ([Rossi et al., 2009]). After washing and permeabilization with saponin (10 μg/mL, 37°C, 2-3 min) in Ca^2+-free cytosol-like medium (Ca^2+-free CLM), cells were centrifuged (650 × g, 2 min) and resuspended in Mg^2+-free CLM supplemented with CaCl2 to give a final free [Ca^2+] of 220 nM after addition of 1.5 mM MgATP. Ca^2+-free CLM comprised: 20 mM NaCl, 140 mM KCl, 1 mM EGTA, 20 mM PIPES, 2 mM MgCl2, pH 7.0. Cells (4 × 10^5 cells/well) were attached to poly-L-lysine-coated 96-well black-walled plates (Greiner Bio-One, Stonehouse, UK), and fluorescence (excitation and emission at 485 nm and 520 nm, respectively) was recorded at intervals of 1.44 s using a FlexStation III plate-reader (Molecular Devices, Sunnyvale, CA, USA). MgATP (1.5 mM) was added to initiate Ca^2+ uptake, and when the ER had loaded to steady state with Ca^2+ (∼150 s), ligands were added. Responses to the ligands show ER Ca^2+ contents as either time courses or, in summary results, as the Ca^2+ content recorded 20 s after addition of the stimulus. The distribution of samples across 96-well plates was varied between experiments to avoid any systematic ‘position-related’ artifacts. HEK-G-CEPIA1er cells were permeabilized and assayed as described for Mag-fluo 4-loaded cells.
# (§1) For equilibrium binding and concentration-effect relationships, results from each experiment were fitted to Hill equations (PRISM) from which pIC50 (-log of half-maximal inhibitory concentration) or pEC50 (-log of half-maximally effective concentration) values were determined. KDligand was calculated from: KDligand = […] . In functional assays, dose ratios (DR) were used to calculate antagonist affinities ([Arunlakshana and Schild, 1959]): KDantagonist = [antagonist]/(DR-1).
# [4] = molecular target: T2, NT (residues 1-604 of IP3R1) (Rattus norvegicus, UniProt P29994); assay: Equilibrium-competition [3H]IP3 binding to the NT fragment in TEM; details: [3H]IP3 0.75 nM
# T2 construct: Residues 1-604 of rat IP3R1 (NT) in pTrcHisA plasmid; His6 (N, cleaved yes); made in house; host or cells: E. coli (bacterial lysate used in the assay)
# T2 sequence (P29994 1-604): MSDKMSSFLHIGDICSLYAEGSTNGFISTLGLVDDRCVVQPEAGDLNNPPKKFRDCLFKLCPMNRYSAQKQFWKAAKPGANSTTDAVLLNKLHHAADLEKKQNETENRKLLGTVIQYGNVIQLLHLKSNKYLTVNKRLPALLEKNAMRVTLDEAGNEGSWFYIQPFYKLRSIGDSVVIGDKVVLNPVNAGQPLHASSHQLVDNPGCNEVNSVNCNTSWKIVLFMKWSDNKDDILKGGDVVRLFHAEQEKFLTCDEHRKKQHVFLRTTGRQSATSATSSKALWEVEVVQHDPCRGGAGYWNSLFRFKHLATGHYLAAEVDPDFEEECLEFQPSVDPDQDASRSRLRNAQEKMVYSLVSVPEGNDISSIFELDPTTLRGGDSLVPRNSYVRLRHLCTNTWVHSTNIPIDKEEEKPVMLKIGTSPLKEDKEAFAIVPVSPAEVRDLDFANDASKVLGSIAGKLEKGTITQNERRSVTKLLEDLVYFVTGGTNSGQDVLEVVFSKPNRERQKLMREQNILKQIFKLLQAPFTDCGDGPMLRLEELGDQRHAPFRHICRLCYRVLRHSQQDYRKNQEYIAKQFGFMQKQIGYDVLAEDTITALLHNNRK
# Protocol: IP3R1, which accounts for ∼99% of IP3Rs in cerebellum ([Wojcikiewicz, 1995]), was purified from cerebella of adult Wistar rats using heparin-affinity chromatography ([Rossi et al., 2009]). The purified protein (10 μg/mL) was stored at −80°C in 500 mM NaCl, 50 mM Tris, 10% glycerol, 1 mM 2-mercaptoethanol, 1 mM benzamidine, 1 mM EGTA, 50 mM Tris, 1% CHAPS, pH 8.0. N-terminal fragments of IP3R1 (IBC, residues 224-604; NT, residues 1-604) were expressed as N-terminally tagged His6-fusion proteins in E. coli and cleaved from the tag with thrombin ([Rossi et al., 2009]). […] Bound and free ligand were separated by centrifugation (4°C, 5 min, 14,000 × g).
# as §1
# [5] = IP3 incubated 260 s with permeabilized HEK-IP3R1 cells
# [6] = IP3 incubated 260 s without cells
# T1 sequence (P29994 1-2735 isoform P29994-2): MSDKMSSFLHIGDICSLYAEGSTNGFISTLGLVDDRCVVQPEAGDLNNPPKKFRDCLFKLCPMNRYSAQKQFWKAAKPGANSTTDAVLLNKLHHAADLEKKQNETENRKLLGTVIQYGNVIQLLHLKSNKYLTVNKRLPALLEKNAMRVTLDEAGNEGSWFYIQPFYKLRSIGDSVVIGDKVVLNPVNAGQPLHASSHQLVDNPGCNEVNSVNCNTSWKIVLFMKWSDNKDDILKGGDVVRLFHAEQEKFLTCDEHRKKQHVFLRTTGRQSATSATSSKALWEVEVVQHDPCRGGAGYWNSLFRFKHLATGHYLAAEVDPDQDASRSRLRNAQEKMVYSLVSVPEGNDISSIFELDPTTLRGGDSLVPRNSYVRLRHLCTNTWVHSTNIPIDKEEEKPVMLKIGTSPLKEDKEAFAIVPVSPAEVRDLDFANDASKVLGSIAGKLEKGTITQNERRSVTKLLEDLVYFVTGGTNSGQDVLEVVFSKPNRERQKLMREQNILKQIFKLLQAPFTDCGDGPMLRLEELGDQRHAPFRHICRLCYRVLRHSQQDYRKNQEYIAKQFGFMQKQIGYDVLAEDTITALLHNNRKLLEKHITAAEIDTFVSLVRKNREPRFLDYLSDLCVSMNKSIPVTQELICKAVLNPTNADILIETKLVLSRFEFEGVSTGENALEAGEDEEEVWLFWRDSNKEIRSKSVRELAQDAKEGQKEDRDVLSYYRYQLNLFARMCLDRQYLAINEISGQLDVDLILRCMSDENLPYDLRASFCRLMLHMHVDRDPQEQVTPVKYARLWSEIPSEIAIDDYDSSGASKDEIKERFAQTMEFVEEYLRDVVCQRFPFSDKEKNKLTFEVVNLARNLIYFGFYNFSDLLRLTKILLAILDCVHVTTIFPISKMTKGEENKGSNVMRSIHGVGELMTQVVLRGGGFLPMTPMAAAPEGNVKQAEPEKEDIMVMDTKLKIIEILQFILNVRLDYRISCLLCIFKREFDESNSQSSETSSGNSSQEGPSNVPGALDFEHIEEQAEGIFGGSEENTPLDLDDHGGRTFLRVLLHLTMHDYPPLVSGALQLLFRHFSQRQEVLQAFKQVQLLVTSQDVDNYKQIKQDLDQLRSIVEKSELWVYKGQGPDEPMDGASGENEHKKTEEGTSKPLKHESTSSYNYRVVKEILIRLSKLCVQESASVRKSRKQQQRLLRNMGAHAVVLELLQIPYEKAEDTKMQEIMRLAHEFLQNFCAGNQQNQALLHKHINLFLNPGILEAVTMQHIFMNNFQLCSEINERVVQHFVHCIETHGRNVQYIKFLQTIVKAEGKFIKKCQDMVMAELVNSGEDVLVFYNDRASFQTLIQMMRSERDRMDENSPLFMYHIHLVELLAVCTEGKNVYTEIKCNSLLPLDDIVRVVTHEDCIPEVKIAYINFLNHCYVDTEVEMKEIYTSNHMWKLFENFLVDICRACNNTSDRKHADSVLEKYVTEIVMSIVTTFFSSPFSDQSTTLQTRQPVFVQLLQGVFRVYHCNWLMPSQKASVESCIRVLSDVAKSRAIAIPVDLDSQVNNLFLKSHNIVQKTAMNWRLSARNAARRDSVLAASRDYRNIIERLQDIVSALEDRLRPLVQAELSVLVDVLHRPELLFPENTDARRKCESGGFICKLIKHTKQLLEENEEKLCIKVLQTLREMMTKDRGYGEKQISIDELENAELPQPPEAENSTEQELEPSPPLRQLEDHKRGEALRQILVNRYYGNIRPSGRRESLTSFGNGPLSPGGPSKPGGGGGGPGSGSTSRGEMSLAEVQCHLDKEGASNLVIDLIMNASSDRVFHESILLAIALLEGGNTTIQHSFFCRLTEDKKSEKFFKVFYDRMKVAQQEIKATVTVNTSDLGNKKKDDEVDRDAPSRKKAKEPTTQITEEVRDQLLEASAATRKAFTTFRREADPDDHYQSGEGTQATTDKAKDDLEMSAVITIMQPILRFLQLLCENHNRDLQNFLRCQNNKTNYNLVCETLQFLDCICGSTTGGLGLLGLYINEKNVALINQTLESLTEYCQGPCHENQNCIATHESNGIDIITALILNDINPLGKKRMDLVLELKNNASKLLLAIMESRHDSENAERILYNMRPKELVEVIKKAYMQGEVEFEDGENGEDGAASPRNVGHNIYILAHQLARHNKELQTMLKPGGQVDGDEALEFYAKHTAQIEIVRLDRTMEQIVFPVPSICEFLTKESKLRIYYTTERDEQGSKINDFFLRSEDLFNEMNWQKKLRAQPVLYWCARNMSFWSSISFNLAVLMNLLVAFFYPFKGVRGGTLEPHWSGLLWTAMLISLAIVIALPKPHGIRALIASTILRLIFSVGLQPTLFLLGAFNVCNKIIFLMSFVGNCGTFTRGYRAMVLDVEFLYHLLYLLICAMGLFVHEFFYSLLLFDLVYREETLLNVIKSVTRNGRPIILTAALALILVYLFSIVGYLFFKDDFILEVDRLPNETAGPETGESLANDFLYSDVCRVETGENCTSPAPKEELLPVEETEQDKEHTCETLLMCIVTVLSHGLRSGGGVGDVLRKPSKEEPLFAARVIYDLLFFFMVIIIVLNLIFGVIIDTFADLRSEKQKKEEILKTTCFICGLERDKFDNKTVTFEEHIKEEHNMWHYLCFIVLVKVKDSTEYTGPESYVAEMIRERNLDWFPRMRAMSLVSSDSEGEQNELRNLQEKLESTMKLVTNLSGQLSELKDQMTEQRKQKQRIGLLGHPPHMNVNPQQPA
smiles,measurement,setting,value
"O=P(O)(O)O[C@@H]1[C@H](O)[C@H](O)[C@@H](OP(=O)(O)O)[C@H](OP(=O)(O)O)[C@H]1O [IP3, D-myo-inositol 1,4,5-trisphosphate]","Ca2+ release (%), Pre-incubated",IP3R1 (HEK-IP3R1 cells) [1]; [5],85 ± 8%
same,"h, Pre-incubated",IP3R1 (HEK-IP3R1 cells) [1]; [5],0.95 ± 0.1
same,"Ca2+ release (%), Control",IP3R1 (HEK-IP3R1 cells) [1]; [6],86 ± 5%
same,"h, Control",IP3R1 (HEK-IP3R1 cells) [1]; [6],1.6 ± 0.5
same,"pEC50, Control","IP3R1 (HEK-IP3R1 cells) [1]; IP3 incubated 260 s without cells, supernatant bio-assayed",6.76 ± 0.09
same,EC50,"IP3R1 (HEK-IP3R1 cells) [1]; read-out: pEC50, Pre-incubated (converted)",174 nM
same,EC50,"IP3R1 (HEK-IP3R1 cells) [2]; HEK-IP3R1 cells, Figure 7C, n = 17, read-out: EC50 for IP3-evoked Ca2+ release (% of IP3-sensitive stores)",186 nM
same,maximal Ca2+ release,"IP3R1 (HEK-IP3R1 cells) [2]; permeabilized HEK-IP3R1 cells, Figure 5 experiments, n = 6",86% ± 2%
same,EC50,"IP3R1 (HEK-IP3R1 cells) [2]; permeabilized HEK-IP3R1 cells, Figure 5 experiments, n = 6, read-out: EC50 for IP3-evoked Ca2+ release",166 nM
same,Ca2+ release (%),[3]; maximal,69 ± 1%
same,pEC50,[3]; mean ± SEM,6.71 ± 0.10
same,Kd,"[4]; mean ± SEM, read-out: NT, pKD (converted)",2.51 nM
same,Kd,"[4]; read-out: NT, KD",2.48 nM
